Where “and” joins values, the source holds several entries; their conditions need not be identical. Equal values may be shown once.

One data set has as its target T1, A1 adenosine receptor (Mesocricetus auratus, UniProt A0A1U8BVR4).
T1 construct: A1 adenosine receptor sites on the membranes of DDT cells; endogenous in cells; host or cells: DDT1 cells (hamster vas deferens smooth muscle cell line), membrane preparation
T1 sequence (A0A1U8BVR4 1-326): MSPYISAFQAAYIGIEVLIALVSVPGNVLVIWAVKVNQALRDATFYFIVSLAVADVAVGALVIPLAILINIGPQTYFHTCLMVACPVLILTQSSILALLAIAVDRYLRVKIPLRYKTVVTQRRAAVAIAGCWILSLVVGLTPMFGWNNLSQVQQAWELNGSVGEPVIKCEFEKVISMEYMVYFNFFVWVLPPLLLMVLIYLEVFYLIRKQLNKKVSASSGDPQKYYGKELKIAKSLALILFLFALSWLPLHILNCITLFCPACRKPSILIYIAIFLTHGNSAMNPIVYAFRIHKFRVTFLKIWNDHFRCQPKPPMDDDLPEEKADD
The data set is described as follows: Competitive binding assay, DDT cell membranes, 3H-CPX. On the set-up: species or system hamster. The settings on record: 1.5 nM 3H-CPX, 10 μM GTP-γS, 23° C. 90 minutes, read-out: Ki (low). The procedure: DDT cells (hamster vas deferens smooth muscle cell line) were grown as monolayers in petri dishes using Dulbecco's Modified Eagle's Medium (DMEM) containing 2.5 μg mL^−1 amphotericin B, 100 U mL^−1 penicillin G, 0.1 mg mL^−1 streptomycin sulfate and 5% fetal bovine serum in a humidified atmosphere of 95% air and 5% CO2. Cells were subcultured twice weekly by dispersion in Hank's Balanced Salt Solution (HBSS) without the divalent cations and containing 1 mM EDTA. The cells were then seeded in growth medium at a density of 1.2×10^5 cells per plate and experiments were performed 4 days later at approximately one day preconfluence.
Attached cells were washed twice with HBSS (2×10 mL), scraped free of the plate with the aid of a rubber policeman in 5 mL of 50 mM Tris-HCl buffer pH 7.4 at 4° C. and the suspension homogenized for 10 s. The suspension was then centrifuged at 27,000×g for 10 min. The pellet was resuspended in homogenization buffer by vortexing and centrifuged as described above. The final pellet was resuspended in 1 vol of 50 mM Tris-HCl buffer pH 7.4 containing 5 mM MgCl2 for A1 adenosine receptor assays. For the [^35S]GTPγS binding assay the final pellet was resuspended in 50 mM Tris-HCl pH 7.4 containing 5 mM MgCl2, 100 mM NaCl and 1 mM dithiothreitol. This membrane suspension was then placed in liquid nitrogen for 10 min, thawed and used for assays. The protein content was determined with a Bradford™ Assay Kit using bovine serum albumin as standard.
Compounds of Formula I were assayed to determine their affinity for the A1 adenosine receptor sites on the membranes of DDT cells. Briefly, 50–70 ug of membrane protein were incubated in a mixture containing 2 U/ml adenosine deaminase, 10 μM GTP-γS in 5 mM HE buffer containing 5 mM MgCl2 in glass tubes Stock solutions of the compounds of the invention were serially diluted (10^−10M to 10^−4M) in HE buffer or HE buffer alone (to determine total binding) and added to the incubation mixture. Finally, tritiated […] (^3H-CPX) was added to a final concentration of 1.5 nM. After incubation at 23° C. 90 minutes, the reaction was stopped by filtration on a Brandel MR24 cell harvester and washing with ice-cold Tris-EDTA buffer (three times, approximate volume 10 ml/wash) over Whatman GF/B filters (presoaked for 1 h in 0.3% polyethylenimine to reduce non-specific binding). Filters were transferred to scintillation vials and 5 ml of Scintisafe (VWR, Brisbane, Calif.) was added. The amount of radioactivity retained on the filters was determined by liquid scintillation spectrometry. Protein determinations were by the method of Bradford (1976. Anal. Biochem. 72:248) using bovine serum albumin as the standard.

For data set [1] the following is noted: cited from earlier work.

As for `OC[C@@H]1C[C@@H](O)[C@H](n2cnc3c(N[C@H]4CC[C@H](O)CC4)ncnc32)O1`, the Ki (in general, a measure of affinity in units of concentration, obtained from inhibition or displacement) at A1 adenosine receptor is > 5 µM.
For the compound “1-[(3R)-3-({9-[(5S,2R,3R)-3-hydroxy-5-(hydroxymethyl)oxolan-2-yl]purin-6-yl}amino)pyrrolidinyl]-2-methylpropan-1-one [CVT 4614]”, the Ki at A1 adenosine receptor is > 5 µM.
The same measure, in the same setting: the result for “4-{[(3R)-3-({9-[(5S,2R,3R)-3-hydroxy-5-(hydroxymethyl)oxolan-2-yl]purin-6-yl}amino)pyrrolidinyl]carbonyl}benzenecarbonitrile [CVT 4608]” reads > 5 µM; that for `OC[C@@H]1C[C@@H](O)[C@H](n2cnc3c(N[C@@H]4CCOC4)ncnc32)O1` [CVT 3454, 2-{6-[((3R)oxolan-3-yl)amino]purin-9-yl}(5S,2R,3R)-5-(hydroxymethyl)oxolan-3-ol], 1 µM.
Take `CC(=O)N1CC[C@@H](Nc2ncnc3c2ncn3[C@@H]2O[C@H](CO)C[C@H]2O)C1` [CVT 4617, (3R)-3-({9-[(5S,2R,3R)-3-hydroxy-5-(hydroxymethyl)oxolan-2-yl]purin-6-yl}amino)-1-acetylpyrrolidine]: on A1 adenosine receptor, the Ki was > 5 µM.
In the case of `OC[C@@H]1C[C@@H](O)[C@H](n2cnc3c(N[C@@H]4CCCCC4O)ncnc32)O1` (stereo partly drawn) [CVT 4622, 2-{6-[((1R)-2-hydroxycyclohexyl)amino]purin-9-yl}(5S,2R,3R)-5-(hydroxymethyl)oxolan-3-ol], the Ki on A1 adenosine receptor was 4.44 µM and 2.94 µM.
For `OC[C@@H]1C[C@@H](O)[C@H](n2cnc3c(N[C@H]4CCC[C@@H]4O)ncnc32)O1` [CVT 4625, (5S,2R,3R)-2-{6-[((1S,2S)-2-hydroxycyclopentyl)amino]purin-9-yl}-5-(hydroxymethyl)oxolan-3-ol], on A1 adenosine receptor, the inhibition constant (Ki) is 4.09 µM and 3.69 µM.
Still for that read-out and setting: then `OC[C@@H]1C[C@@H](O)[C@H](n2cnc3c(N[C@@H]4CCCC4O)nc(Cl)nc32)O1` (stereo partly drawn) [CVT 4626, 2-{6-[((1R)-2-hydroxycyclopentyl)amino]-2-chloropurin-9-yl}(5S,2R,3R)-5-(hydroxymethyl)oxolan-3-ol], with 4.01 µM and 3.5 µM; and `O=S(=O)(c1ccccc1)N1CC[C@@H](Nc2ncnc3c2ncn3[C@@H]2O[C@H](CO)C[C@H]2O)C1` [CVT 4629, (3R)-3-({9-[(5S,2R,3R)-3-hydroxy-5-(hydroxymethyl)oxolan-2-yl]purin-6-yl}amino)-1-(phenylsulfonyl)pyrrolidine], with > 5 µM.
With `Nc1ncnc2c1ncn2[C@@H]1O[C@H](CO)[C@@H](O)[C@H]1O` [adenosine, Adenosine], the half-life entry in data set [1] is “less than 10 sec”.
For “(3R)-3-({9-[(5S,2R,3R)-3-hydroxy-5-(hydroxymethyl)oxolan-2-yl]purin-6-yl}amino)pyrrolidinyl 2-fluorophenyl ketone [CVT 4606]”, the Ki on A1 adenosine receptor stood at 2.84 µM.
As for “(3R)-3-({9-[(5S,2R,3R)-3-hydroxy-5-(hydroxymethyl)oxolan-2-yl]purin-6-yl}amino)pyrrolidinyl 2-naphthyl ketone [CVT 4612]”, on A1 adenosine receptor, the Ki was > 5 µM.
As for “(3R)-3-({9-[(5S,2R,3R)-3-hydroxy-5-(hydroxymethyl)oxolan-2-yl]purin-6-yl}amino)pyrrolidinyl 3-fluorophenyl ketone [CVT 4613]”, the Ki at A1 adenosine receptor is > 5 µM.
Still for that read-out and setting: the result for “(3R)-3-({9-[(5S,2R,3R)-3-hydroxy-5-(hydroxymethyl)oxolan-2-yl]purin-6-yl}amino)pyrrolidinyl 4-(trifluoromethyl)phenyl ketone [CVT 4610]” reads > 5 µM; that for “(3R)-3-({9-[(5S,2R,3R)-3-hydroxy-5-(hydroxymethyl)oxolan-2-yl]purin-6-yl}amino)pyrrolidinyl 4-ethylphenyl ketone [CVT 4611]”, > 5 µM.
For the compound “(3R)-3-({9-[(5S,2R,3R)-3-hydroxy-5-(hydroxymethyl)oxolan-2-yl]purin-6-yl}amino)pyrrolidinyl 4-fluorophenyl ketone [CVT 4607]”, on A1 adenosine receptor, the Ki is > 5 µM.
For “(3R)-3-({9-[(5S,2R,3R)-3-hydroxy-5-(hydroxymethyl)oxolan-2-yl]purin-6-yl}amino)pyrrolidinyl 4-methoxyphenyl ketone [CVT 4609]”, the Ki on A1 adenosine receptor is > 5 µM.
“(3R)-3-({9-[(5S,2R,3R)-3-hydroxy-5-(hydroxymethyl)oxolan-2-yl]purin-6-yl}amino)pyrrolidinyl naphthyl ketone [CVT 4627]”: the Ki at A1 adenosine receptor is 1.91 µM and 2.56 µM.
